Assay results from BindingDB's records for doi:10.1016/s0960-894x(01)00378-x (The R. W. Johnson Pharmaceutical Research Institute, 2001).

Tests used:
[1] = In vitro inhibition of human platelet aggregation induced by alpha-thrombin (at a concentration of 0.15 nM)
[2] = In vitro inhibition of human platelet aggregation induced by SFLLRN-NH2 (at a concentration of 2 uM)
[3] = In vitro inhibition of human platelet aggregation induced by alpha-thrombin (at a concentration of 0.15 nM); remark: listed apart in the source

| IC50 [1] [nM] | IC50 [2] [nM] | IC50 [3] [nM] | Structure (SMILES) |
| --- | --- | --- | --- |
| 2320 | 270 |  | COc1ccc(C[C@H](NC(=O)Nc2ccc3c(CN4CCCC4)cn(Cc4ccc(F)cc4)c3c2)C(=O)N[C@@H](CCCNC(=N)N)C(=O)NCc2ccccc2)cc1 [2-[2-{3-[1-(4-Fluoro-benzyl)-3-pyrrolidin-1-ylmethyl-1H-indol-6-yl]-ureido}-3-(4-methoxy-phenyl)-propionylamino]-5-guanidino-pentanoic acid benzylamide] |
|  | 300 |  | NC(=O)NCCCC(NC(=O)[C@H](Cc1ccc(F)c(F)c1)NC(=O)Nc1ccc2c(CN3CCCC3)cn(Cc3c(Cl)cccc3Cl)c2c1)C(=O)NCc1ccccc1 (stereo partly drawn) [2-[(S)-2-{3-[1-(2,6-Dichloro-benzyl)-3-pyrrolidin-1-ylmethyl-1H-indol-6-yl]-ureido}-3-(3,4-difluoro-phenyl)-propionylamino]-5-ureido-pentanoic acid benzylamide] |
|  | 2000 |  | NC(=O)CCC(NC(=O)[C@H](Cc1ccc(F)c(F)c1)NC(=O)Nc1ccc2c(CN3CCCC3)cn(Cc3c(Cl)cccc3Cl)c2c1)C(=O)NCc1ccccc1 (stereo partly drawn) [2-[(S)-2-{3-[1-(2,6-Dichloro-benzyl)-3-pyrrolidin-1-ylmethyl-1H-indol-6-yl]-ureido}-3-(3,4-difluoro-phenyl)-propionylamino]-pentanedioic acid 5-amide 1-benzylamide] |
|  |  | 38700 | COC(=O)c1ccc(Cn2cc(CN3CCCC3)c3ccc(NC(=O)N[C@@H](Cc4ccc(OC)cc4)C(=O)N[C@@H](CCCNC(=N)N)C(=O)NCC4CCCCC4)cc32)cc1 [4-(6-{3-[(S)-1-[(S)-1-(Cyclohexylmethyl-carbamoyl)-4-guanidino-butylcarbamoyl]-2-(4-methoxy-phenyl)-ethyl]-ureido}-3-pyrrolidin-1-ylmethyl-indol-1-ylmethyl)-benzoic acid methyl ester] |
| 340 | 160 |  | NCCC(NC(=O)[C@H](Cc1ccc(F)c(F)c1)NC(=O)Nc1ccc2c(CN3CCCC3)cn(Cc3c(Cl)cccc3Cl)c2c1)C(=O)NCc1ccccc1 (stereo partly drawn) [4-Amino-N-benzyl-2-[(S)-2-{3-[1-(2,6-dichloro-benzyl)-3-pyrrolidin-1-ylmethyl-1H-indol-6-yl]-ureido}-3-(3,4-difluoro-phenyl)-propionylamino]-butyramide] |
|  | 70 |  | N#Cc1ccc(C[C@H](NC(=O)Nc2ccc3c(CN4CCCC4)cn(Cc4c(Cl)cccc4Cl)c3c2)C(=O)N[C@@H](CCCNC(=N)N)C(=O)NCc2ccccc2)cc1 [(S)-2-((S)-3-(4-Cyano-phenyl)-2-{3-[1-(2,6-dichloro-benzyl)-3-pyrrolidin-1-ylmethyl-1H-indol-6-yl]-ureido}-propionylamino)-5-guanidino-pentanoic acid benzylamide] |
| 620 | 600 |  | Cc1ccccc1Cn1cc(CN2CCCC2)c2ccc(NC(=O)N[C@@H](Cc3ccc(C#N)cc3)C(=O)N[C@@H](CCCNC(=N)N)C(=O)NCc3ccccc3)cc21 [(S)-2-((S)-3-(4-Cyano-phenyl)-2-{3-[1-(2-methyl-benzyl)-3-pyrrolidin-1-ylmethyl-1H-indol-6-yl]-ureido}-propionylamino)-5-guanidino-pentanoic acid benzylamide] |
| 2600 | 140 |  | COc1ccc(C[C@H](NC(=O)Nc2ccc3c(CN4CCCC4)cn(Cc4ccccc4Cl)c3c2)C(=O)N[C@@H](CCCNC(=N)N)C(=O)NCCCc2ccccc2)cc1 [(S)-2-[(S)-2-{3-[1-(2-Chloro-benzyl)-3-pyrrolidin-1-ylmethyl-1H-indol-6-yl]-ureido}-3-(4-methoxy-phenyl)-propionylamino]-5-guanidino-pentanoic acid (3-phenyl-propyl)-amide] |
|  | 1000 |  | COc1ccc(C[C@H](NC(=O)Nc2ccc3c(CN4CCCCC4)cn(Cc4ccc(F)cc4)c3c2)C(=O)N[C@@H](CCCNC(=N)N)C(=O)NCC2CCCCC2)cc1 [(S)-2-[(S)-2-{3-[1-(4-Fluoro-benzyl)-3-piperidin-1-ylmethyl-1H-indol-6-yl]-ureido}-3-(4-methoxy-phenyl)-propionylamino]-5-guanidino-pentanoic acid cyclohexylmethyl-amide] |
| 8500 | 600 |  | COc1ccc(C[C@H](NC(=O)Nc2ccc3c(CN4CCCC4)cn(Cc4ccc(F)cc4)c3c2)C(=O)N[C@@H](CCCNC(=N)N)C(=O)NCCCc2ccccc2)cc1 [(S)-2-[(S)-2-{3-[1-(4-Fluoro-benzyl)-3-pyrrolidin-1-ylmethyl-1H-indol-6-yl]-ureido}-3-(4-methoxy-phenyl)-propionylamino]-5-guanidino-pentanoic acid (3-phenyl-propyl)-amide] |
| 4400 |  |  | COc1ccc(C[C@H](NC(=O)Nc2ccc3c(CN4CCCC4)cn(Cc4ccc(F)cc4)c3c2)C(=O)N[C@@H](CCCNC(=N)N)C(=O)NCC2CCCCC2)cc1 [(S)-2-[(S)-2-{3-[1-(4-Fluoro-benzyl)-3-pyrrolidin-1-ylmethyl-1H-indol-6-yl]-ureido}-3-(4-methoxy-phenyl)-propionylamino]-5-guanidino-pentanoic acid cyclohexylmethyl-amide] |
|  | 400 |  | COc1ccc(C[C@H](NC(=O)Nc2ccc3c(CN4CCC4)cn(Cc4ccc(F)cc4)c3c2)C(=O)N[C@@H](CCCNC(=N)N)C(=O)NCc2ccccc2)cc1 [(S)-2-[(S)-2-{3-[3-Azetidin-1-ylmethyl-1-(4-fluoro-benzyl)-1H-indol-6-yl]-ureido}-3-(4-methoxy-phenyl)-propionylamino]-5-guanidino-pentanoic acid benzylamide] |
| 1300 | 210 |  | CCN(CC)Cc1cn(Cc2cccc(C)c2)c2cc(NC(=O)N[C@@H](Cc3ccc(OC)cc3)C(=O)N[C@@H](CCCNC(=N)N)C(=O)NCCCc3ccccc3)ccc12 [(S)-2-[(S)-2-{3-[3-Diethylaminomethyl-1-(3-methyl-benzyl)-1H-indol-6-yl]-ureido}-3-(4-methoxy-phenyl)-propionylamino]-5-guanidino-pentanoic acid (3-phenyl-propyl)-amide] |
| 11100 | 900 |  | CCN(CC)Cc1cn(Cc2ccc(F)cc2)c2cc(NC(=O)N[C@@H](Cc3ccc(OC)cc3)C(=O)N[C@@H](CCCNC(=N)N)C(=O)NCC3CCCCC3)ccc12 [(S)-2-[(S)-2-{3-[3-Diethylaminomethyl-1-(4-fluoro-benzyl)-1H-indol-6-yl]-ureido}-3-(4-methoxy-phenyl)-propionylamino]-5-guanidino-pentanoic acid cyclohexylmethyl-amide] |
|  | 100 |  | NCCC[C@H](NC(=O)[C@H](Cc1ccc(F)c(F)c1)NC(=O)Nc1ccc2c(CN3CCCC3)cn(Cc3c(Cl)cccc3Cl)c2c1)C(=O)NCc1ccccc1 [(S)-5-Amino-2-[(S)-2-{3-[1-(2,6-dichloro-benzyl)-3-pyrrolidin-1-ylmethyl-1H-indol-6-yl]-ureido}-3-(3,4-difluoro-phenyl)-propionylamino]-pentanoic acid benzylamide] |
| 4800 | 310 |  | COc1ccc(C[C@H](NC(=O)Nc2ccc3c(CN4CCCCC4)cn(Cc4ccccc4C)c3c2)C(=O)N[C@@H](CCCNC(=N)N)C(=O)NCCCc2ccccc2)cc1 [(S)-5-Guanidino-2-((S)-3-(4-methoxy-phenyl)-2-{3-[1-(2-methyl-benzyl)-3-piperidin-1-ylmethyl-1H-indol-6-yl]-ureido}-propionylamino)-pentanoic acid (3-phenyl-propyl)-amide] |
|  | 200 |  | COc1ccc(C[C@H](NC(=O)Nc2ccc3c(CN4CCCC4)cn(Cc4ccccc4C)c3c2)C(=O)N[C@@H](CCCNC(=N)N)C(=O)NCCCc2ccccc2)cc1 [(S)-5-Guanidino-2-((S)-3-(4-methoxy-phenyl)-2-{3-[1-(2-methyl-benzyl)-3-pyrrolidin-1-ylmethyl-1H-indol-6-yl]-ureido}-propionylamino)-pentanoic acid (3-phenyl-propyl)-amide] |
| 11700 | 900 |  | COc1ccc(C[C@H](NC(=O)Nc2ccc3c(CN4CCCCC4)cn(Cc4cccc(C)c4)c3c2)C(=O)N[C@@H](CCCNC(=N)N)C(=O)NCC2CCCCC2)cc1 [(S)-5-Guanidino-2-((S)-3-(4-methoxy-phenyl)-2-{3-[1-(3-methyl-benzyl)-3-piperidin-1-ylmethyl-1H-indol-6-yl]-ureido}-propionylamino)-pentanoic acid cyclohexylmethyl-amide] |
| 36500 |  |  | COc1ccc(C[C@H](NC(=O)Nc2ccc3c(CN4CCCCC4)cn(Cc4ccc(OC(F)(F)F)cc4)c3c2)C(=O)N[C@@H](CCCNC(=N)N)C(=O)NCC2CCCCC2)cc1 [(S)-5-Guanidino-2-((S)-3-(4-methoxy-phenyl)-2-{3-[3-piperidin-1-ylmethyl-1-(4-trifluoromethoxy-benzyl)-1H-indol-6-yl]-ureido}-propionylamino)-pentanoic acid cyclohexylmethyl-amide] |
|  | 4800 |  | COc1ccc(C[C@H](NC(=O)Nc2ccc3c(CN4CCCC4)cn(Cc4ccc(OC(F)(F)F)cc4)c3c2)C(=O)N[C@@H](CCCNC(=N)N)C(=O)NCC2CCCCC2)cc1 [(S)-5-Guanidino-2-((S)-3-(4-methoxy-phenyl)-2-{3-[3-pyrrolidin-1-ylmethyl-1-(4-trifluoromethoxy-benzyl)-1H-indol-6-yl]-ureido}-propionylamino)-pentanoic acid cyclohexylmethyl-amide] |
|  | 500 |  | NCC(NC(=O)[C@H](Cc1ccc(F)c(F)c1)NC(=O)Nc1ccc2c(CN3CCCC3)cn(Cc3c(Cl)cccc3Cl)c2c1)C(=O)NCc1ccccc1 (stereo partly drawn) [(S)-N-(2-Amino-1-benzylcarbamoyl-ethyl)-2-{3-[1-(2,6-dichloro-benzyl)-3-pyrrolidin-1-ylmethyl-1H-indol-6-yl]-ureido}-3-(3,4-difluoro-phenyl)-propionamide] |
|  | 400 |  | CSCCC(NC(=O)[C@H](Cc1ccc(F)c(F)c1)NC(=O)Nc1ccc2c(CN3CCCC3)cn(Cc3c(Cl)cccc3Cl)c2c1)C(=O)NCc1ccccc1 (stereo partly drawn) [N-Benzyl-2-[(S)-2-{3-[1-(2,6-dichloro-benzyl)-3-pyrrolidin-1-ylmethyl-1H-indol-6-yl]-ureido}-3-(3,4-difluoro-phenyl)-propionylamino]-4-methylsulfanyl-butyramide] |
